Reference: DBAASP
Values after ≈ are worked out from the molar mass of the structure shown.

What was measured:
Assay in all cases: ≥ marks a high value that may be exact or a test limit, other limits are often not marked, values filed in µg/mL are converted to µM
[1] = test system: Candida albicans ATCC 90028
[2] = test system: Escherichia coli O157:H7 ATCC 43895
[3] = test system: Staphylococcus aureus ATCC 25923
[4] = test system: Streptococcus mutans KCTC 3065
[5] = test system: Pseudomonas aeruginosa ATCC 27853
[6] = test system: Trichosporon beigelii KCTC 7707
[7] = test system: Malassezia furfur KCTC 7744
[8] = test system: Vibrio vulnificus ATCC 29307
[9] = test system: Enterococcus faecium ATCC 29212
[10] = test system: Escherichia coli NDM
[11] = test system: Escherichia coli ATCC 25922
[12] = test system: Staphylococcus aureus ATCC 6538P
[13] = test system: Streptococcus pyogenes
[14] = test system: Escherichia coli ATCC 9723H
[15] = test system: Pseudomonas aeruginosa ATCC 10148
[16] = test system: Bacillus cereus ATCC 1015
[17] = test system: Staphylococcus epidermidis ATCC 1114
[18] = test system: Leuconostoc mesenteroides ATCC 1059
[19] = test system: Staphylococcus aureus MR
[20] = test system: Escherichia coli K12 MG1655
[21] = test system: Staphylococcus aureus ST88
[22] = test system: Staphylococcus haemolyticus 527
[23] = test system: Bacillus subtilis 168 HT
[24] = test system: Klebsiella pneumoniae ATCC BAA-2146
[25] = test system: Staphylococcus aureus VRSA10
[26] = test system: Staphylococcus aureus NRS 1
[27] = test system: Staphylococcus aureus ATCC 43300
[28] = test system: Pseudomonas aeruginosa FADDI-PA070
[29] = test system: Streptococcus pneumoniae ATCC 700677
[30] = test system: Acinetobacter baumannii ATCC 19606
[31] = test system: Klebsiella pneumoniae ATCC 700603
[32] = test system: Staphylococcus aureus VRSA1
[33] = test system: Staphylococcus aureus NRS 17
[34] = test system: Cutibacterium acnes PCM 2334
[35] = test system: Cutibacterium acnes PCM 2400
[36] = test system: Staphylococcus epidermidis ATCC 12228
[37] = test system: Edwardsiella piscicida FSW 910410
[38] = test system: Streptococcus parauberis KSP 28
[39] = test system: Vibrio alginolyticus KCCM 2928
[40] = test system: Vibrio campbellii KCCM 40684
[41] = test system: Streptococcus parauberis PH0710
[42] = test system: Vibrio anguillarum TR14001NF
[43] = test system: Vibrio harveyi ATCC 14126
[44] = test system: Streptococcus iniae FP5228
[45] = test system: Vibrio ordalii KCCM 41669

CSCC[C@H](NC(=O)CNC(=O)[C@H](C)NC(=O)[C@H](C)N)C(=O)NCC(=O)N[C@@H](Cc1ccccc1)C(=O)N[C@@H](Cc1ccccc1)C(=O)NCC(=O)N[C@@H](C)C(=O)N[C@@H](CCCN=C(N)N)C(N)=O [AAGMGFFGAR]
MIC [1]: 25.4 µM (≈ 25 µg/mL)
MIC [2]: 12.7 µM (≈ 12.5 µg/mL)
MIC [3]: 25.4 µM (≈ 25 µg/mL)
MIC [4]: 12.7 µM (≈ 12.5 µg/mL)
MIC [5]: 12.7 µM (≈ 12.5 µg/mL)
MIC [6]: 12.7 µM (≈ 12.5 µg/mL)
MIC [7]: ≥ 50.9 µM
MIC [8]: 25.4 µM (≈ 25 µg/mL)
MIC [9]: 25.4 µM (≈ 25 µg/mL)

CC[C@H](C)[C@H](NC(=O)[C@@H](NC(=O)[C@@H]1CCCN1C(=O)[C@H](Cc1ccccc1)NC(=O)[C@@H](N)Cc1ccccc1)[C@@H](C)CC)C(=O)N[C@@H](C)C(=O)N[C@@H](CCCN=C(N)N)C(=O)N[C@@H](CC(C)C)C(=O)N[C@@H](C)C(=O)N[C@@H](C)C(=O)N[C@@H](CCCCN)C(=O)N[C@H](C(=O)N[C@H](C(=O)N1CCC[C@H]1C(=O)N[C@@H](CO)C(=O)N[C@@H](CC(C)C)C(=O)N[C@H](C(=O)N[C@@H](CS)C(=O)N[C@@H](C)C(=O)N[C@H](C(=O)N[C@H](C(=O)N[C@@H](CCCCN)C(=O)N[C@@H](CCCCN)C(=O)N[C@@H](CS)C(=O)O)[C@@H](C)O)C(C)C)C(C)C)[C@@H](C)CC)C(C)C [FFPIIARLAAKVIPSLVCAVTKKC]
MIC [10]: 3.46 µM (≈ 8.97 µg/mL)
MIC [11]: 3.46 µM (≈ 8.97 µg/mL)
MIC [12]: 1.73 µM (≈ 4.48 µg/mL)
MIC [13]: ≥ 35 µM
MIC [14]: 4.24 µM (≈ 11 µg/mL)
MIC [15]: ≥ 35 µM

CC[C@H](C)[C@H](NC(=O)[C@H](CC(C)C)NC(=O)[C@@H]1CCCN1C(=O)[C@H](CC(C)C)NC(=O)[C@@H](N)Cc1ccccc1)C(=O)NCC(=O)N[C@@H](CCCCN)C(=O)N[C@@H](CC(C)C)C(=O)N[C@@H](CC(C)C)C(=O)N[C@@H](CO)C(=O)NCC(=O)N[C@@H](CC(C)C)C(=O)N[C@@H](Cc1ccc(O)cc1)C(N)=O [FLPLIGKLLSGLY]
MIC [16]: 20.9 µM (≈ 30 µg/mL)
MIC [17]: 20.9 µM (≈ 30 µg/mL)
MIC [18]: 6.97 µM (≈ 9.99 µg/mL)
MIC [19]: 20.9 µM (≈ 30 µg/mL)

CC[C@H](C)[C@H](NC(=O)[C@H](CCCCN)NC(=O)[C@@H](NC(=O)[C@@H](N)Cc1ccccc1)C(C)C)C(=O)N[C@@H](CC(C)C)C(=O)N[C@@H](C)C(=O)N[C@@H](CCCCN)C(=O)N[C@@H](CC(C)C)C(=O)N[C@H](C(=O)N[C@@H](CC(N)=O)C(=O)N[C@@H](Cc1ccc(O)cc1)C(=O)N[C@@H](C)C(=O)N[C@@H](CCCCN)C(=O)N[C@@H](CC(N)=O)C(=O)O)C(C)C [FVKILAKLVNYAKN]
MIC [20]: ≥ 79 µM
MIC [21]: ≥ 100 µM
MIC [22]: ≥ 100 µM
MIC [23]: 19.8 µM (≈ 32.1 µg/mL)

CC[C@H](C)[C@H](NC(=O)[C@@H](N)CC(C)C)C(=O)NCC(=O)N[C@@H](CC(C)C)C(=O)N[C@H](C(=O)N[C@@H](CO)C(=O)N[C@@H](CCCCN)C(=O)NCC(=O)N[C@H](C(=O)N[C@@H](CO)C(=O)N[C@H](C(=O)N[C@@H](CC(C)C)C(=O)N[C@H](C(=O)N[C@@H](CCCCN)C(=O)N[C@H](C(=O)N[C@H](C(=O)N[C@@H](CO)C(=O)N[C@@H](CCCCN)C(=O)N[C@@H](CCCCN)C(=O)N[C@H](C(=O)N[C@@H](CC(C)C)C(=O)N[C@@H](CCCCN)C(=O)N[C@@H](CCC(N)=O)C(N)=O)C(C)C)C(C)C)[C@@H](C)O)C(C)C)C(C)C)[C@@H](C)O)C(C)C [LIGLVSKGTSVLVKTVSKKVLKQ]
MIC [24]: 9.6 µM (≈ 23.3 µg/mL)
MIC [25]: 9.6 µM (≈ 23.3 µg/mL)
MIC [26]: 9.6 µM (≈ 23.3 µg/mL)
MIC [27]: > 9.6 µM
MIC [5]: > 9.6 µM
MIC [28]: 9.6 µM (≈ 23.3 µg/mL)
MIC [11]: > 9.6 µM
MIC [29]: 9.6 µM (≈ 23.3 µg/mL)
MIC [30]: > 9.6 µM
MIC [31]: > 9.6 µM
MIC [32]: 9.6 µM (≈ 23.3 µg/mL)
MIC [33]: 9.6 µM (≈ 23.3 µg/mL)

CC(C)C[C@H](NC(=O)[C@H](CO)NC(=O)[C@H](CCCCN)NC(=O)[C@H](CO)NC(=O)[C@H](C)NC(=O)[C@H](Cc1ccccc1)NC(=O)[C@H](Cc1ccccc1)NC(=O)[C@H](CCCN=C(N)N)NC(=O)CNC(=O)[C@H](Cc1ccc(O)cc1)NC(=O)[C@H](CC(=O)O)NC(=O)[C@H](CS)NC(=O)[C@H](CCCN=C(N)N)NC(=O)[C@@H](N)CC(C)C)C(=O)N[C@@H](Cc1ccc(O)cc1)C(=O)N[C@@H](CC(=O)O)C(=O)N1CCC[C@H]1C(=O)N[C@@H](CC(C)C)C(=O)N[C@@H](CCCCN)C(=O)N[C@@H](CCCCN)C(=O)N[C@@H](CCCN=C(N)N)C(=O)N[C@@H](CCCN=C(N)N)C(=O)O [LRCDYGRFFASKSLYDPLKKRR]
MIC [3]: 91.9 µM (≈ 250 µg/mL)
MIC [34]: 11.5 µM (≈ 31.3 µg/mL)
MIC [5]: > 735 µM
MIC [11]: > 735 µM
MIC [35]: 23 µM (≈ 62.5 µg/mL)
MIC [36]: 91.9 µM (≈ 250 µg/mL)

CC(C)C[C@H](NC(=O)[C@H](Cc1cnc[nH]1)NC(=O)CNC(=O)[C@@H]1CCCN1C(=O)[C@@H](NC(=O)[C@H](CCC(N)=O)NC(=O)[C@H](Cc1cnc[nH]1)NC(=O)[C@H](CC(C)C)NC(=O)[C@@H](NC(=O)[C@H](CCCCN)NC(=O)[C@@H]1CCCN1C(=O)[C@H](CC(C)C)NC(=O)[C@@H](N)Cc1ccc(O)cc1)C(C)C)[C@@H](C)O)C(=O)N[C@@H](CCCCN)C(=O)N1CCC[C@H]1C(=O)O [YLPKVLHQTPGHLKP]
MIC [37]: ≥ 289 µM
MIC [38]: ≥ 289 µM
MIC [39]: ≥ 289 µM
MIC [40]: ≥ 289 µM
MIC [41]: ≥ 205 µM
MIC [42]: ≥ 289 µM
MIC [43]: ≥ 51.1 µM
MIC [44]: ≥ 51.1 µM
MIC [45]: ≥ 289 µM
